# Assay results: patent US9102678B2, “Compounds and methods for inhibiting mitotic progression” (Millennium Pharmaceuticals, Inc., priority 2004, dated 2015)
# Molecular target: T1, recombinant murine Aurora A enzyme (Mus musculus, UniProt P97477)
# T1 construct: hexahistidine (His6) (N); made in house; host or cells: insect cells, baculovirus (Bac-to-Bac, Invitrogen)
# Assay: Aurora A DELFIA Kinase Assay
# Assay type: biochemical
# Conditions: mouse Aurora A, 250 μM ATP; threshold less than or equal to 100 nM; read-out: IC50
# T1 sequence (P97477 whole entry): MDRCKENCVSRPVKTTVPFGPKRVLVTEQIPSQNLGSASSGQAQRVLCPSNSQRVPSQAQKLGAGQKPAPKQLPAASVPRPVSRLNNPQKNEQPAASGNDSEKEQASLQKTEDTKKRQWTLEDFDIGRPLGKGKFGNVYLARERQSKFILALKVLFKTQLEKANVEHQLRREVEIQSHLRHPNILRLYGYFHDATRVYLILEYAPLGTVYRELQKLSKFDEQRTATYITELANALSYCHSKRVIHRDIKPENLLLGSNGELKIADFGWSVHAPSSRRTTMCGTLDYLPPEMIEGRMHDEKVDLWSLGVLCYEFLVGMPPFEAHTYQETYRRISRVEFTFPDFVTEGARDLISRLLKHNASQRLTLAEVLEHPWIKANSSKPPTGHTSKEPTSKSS
row,Structure (SMILES),IC50 [nM]
1,"CN1CCN(CCCNC(=O)c2ccc(Nc3ncc4c(n3)-c3ccc(Cl)cc3C(c3ccccc3Cl)=NC4)cc2)CC1 [Compound I-20, 4-[9-Chloro-7-(2-chloro-phenyl)-5H-benzo[c]pyrimido[4,5-e]azepin-2-ylamino]-N-[3-(4-methyl-piperazin-1-yl)-propyl]-benzamide]",≤ 100
2,"CN1CCN(C(=O)c2ccc(Nc3ncc4c(n3)-c3ccc(Cl)cc3C(c3ccccc3F)=NC4)cc2)CC1 [Compound I-9, {4-[9-Chloro-7-(2-fluoro-phenyl)-5H-benzo[c]pyrimido[4,5-e]azepin-2-ylamino]-phenyl}-(4-methyl-piperazin-1-yl)-methanone]",≤ 100
3,"COc1cccc(F)c1C1=NCc2cnc(Nc3ccc(C(=O)N4CC(C)NC(C)C4)cc3)nc2-c2ccc(Cl)cc21 (stereo not drawn) [Compound I-177, 9-Chloro-N-{4-[(3,5-dimethylpiperazin-1-yl)carbonyl]phenyl}-7-(2-fluoro-6-methoxyphenyl)-5H-pyrimido[5,4-d][2]benzazepin-2-amine]",≤ 100
4,"CNC1CCN(C(=N)c2ccc(Nc3ncc4c(n3)-c3ccc(Cl)cc3C(c3c(F)cccc3F)=NC4)cc2)C1 (stereo not drawn) [Compound I-268, 9-chloro-7-(2,6-difluorophenyl)-N-(4-{imino[3-(methylamino)pyrrolidin-1-yl]methyl}phenyl)-5H-pyrimido[5,4-d][2]benzazepin-2-amine]",≤ 100
5,"CNC1CCN(C(=O)c2ccc(Nc3ncc4c(n3)-c3ccc(Cl)cc3C(c3ccccc3C(F)(F)F)=NC4)cc2)C1 (stereo not drawn) [Compound I-290, 9-chloro-N-(4-{[3-(methylamino)pyrrolidin-1-yl]carbonyl}phenyl)-7-[2-(trifluoromethyl)phenyl]-5H-pyrimido[5,4-d][2]benzazepin-2-amine]",≤ 100
6,"Cc1cc(NS(=O)(=O)c2ccc(Nc3ncc4c(n3)-c3ccc(Cl)cc3C(c3ccccc3Cl)=NC4)cc2)no1 [Compound I-69, 4-[9-Chloro-7-(2-chloro-phenyl)-5H-benzo[c]pyrimido[4,5-e]azepin-2-ylamino]-N-(5-methyl-isoxazol-3-yl)-benzenesulfonamide]",≤ 100
7,"Cc1ccccc1C1=NCc2cnc(Nc3ccc(C(=O)NCCN4CCOCC4)cc3)nc2-c2ccc(Cl)cc21 [Compound I-31, 4-(9-Chloro-7-o-tolyl-5H-benzo[c]pyrimido[4,5-e]azepin-2-ylamino)-N-(2-morpholin-4-yl-ethyl)-benzamide]",≤ 100
8,"CCCN(CCC)CCN1CCN(C(=O)c2ccc(Nc3ncc4c(n3)-c3ccc(Cl)cc3C(c3ccccc3F)=NC4)cc2)CC1 [Compound I-187, {4-[9-Chloro-7-(2-fluoro-phenyl)-5H-benzo[c]pyrimido[4,5-e]azepin-2-ylamino]-phenyl}-[4-(2-dipropylamino-ethyl)-piperazin-1-yl]-methanone]",≤ 100
9,"CN1CCN(C(=O)Nc2ccc(Nc3ncc4c(n3)-c3ccc(Cl)cc3C(c3c(F)cccc3F)=NC4)cc2)CC1 [Compound I-280, 4-Methyl-piperazine-1-carboxylic acid {4-[9-chloro-7-(2,6-difluoro-phenyl)-5H-benzo[c]pyrimido[4,5-e]azepin-2-ylamino]-phenyl}-amide]",≤ 100
10,"CN(C)CCC(=O)c1cccc(Nc2ncc3c(n2)-c2ccc(Cl)cc2C(c2c(F)cccc2F)=NC3)c1 [Compound I-359, 1-(3-{[9-chloro-7-(2,6-difluorophenyl)-5H-pyrimido[5,4-d][2]benzazepin-2-yl]amino}phenyl)-3-(dimethylamino)propan-1-one]",≤ 100
11,"CNC1CCN(C(=O)c2ccc(Nc3ncc4c(n3)-c3ccc(Cl)cc3C(c3c(F)cccc3OC)=NC4)cc2)CC1 [Compound I-242, 9-chloro-7-(2-fluoro-6-methoxyphenyl)-N-(4-{[4-(methylamino)piperidin-1-yl]carbonyl}phenyl)-5H-pyrimido[5,4-d][2]benzazepin-2-amine]",≤ 100
12,"NC1CCN(C(=O)c2ccc(Nc3ncc4c(n3)-c3ccc(Cl)cc3C(c3ccccc3F)=NC4)cc2)C1 (stereo not drawn) [Compound I-103, (3-Amino-pyrrolidin-1-yl)-{4-[9-chloro-7-(2-fluoro-phenyl)-5H-benzo[c]pyrimido[4,5-e]azepin-2-ylamino]-phenyl}-methanone]",≤ 100
